Key:
[1] = tested on: Ehrlich's ascites adenocarcinoma; assay: Ehrlich's ascites adenocarcinoma in Barbados mice; details: n = 10
[2] = tested on: benzidine skin sarcoma; assay: Benzidine skin sarcoma in Barbados mice
[3] = tested on: HeLa-2 cells; assay: Anti-cancer activity in cell culture, MAD and cytopathic activity; assay type: cell-based; details: minimum amount causing degeneration of 90-95% of the cells, five days
Experimental: The anti-cancer activity of MPs. The determination of the anti-cancer activity of Anticanum in a cell culture was made in a culture of HeLa-2 cells. For this purpose, 20-120 mcg of MPs per ml of medium were added to the 199 medium. (See Table 2.) A culture without MPs in it was used as a control. Cultures were observed daily over the course of five days.

CC(=O)O[C@@]12CO[C@@H]1C[C@H](O)[C@@]1(C)C(=O)[C@H](O)C3=C(C)[C@@H](OC(=O)[C@H](O)[C@@H](NC(=O)OC(C)(C)C)c4ccccc4)C[C@@](O)([C@@H](OC(=O)c4ccccc4)[C@H]21)C3(C)C [Taxotere]
Time of Death of Animals after the First Injection, Average Value, Experimental Animals ([1]; IP): 14 ± 1 days
Time of Death of Animals after the First Injection, Average Value, Experimental Animals ([1]; IV): 15 ± 1 days
Weight of Animal, After Treatment ([2]; 100 mcg/kg parenterally twice a day for two weeks, n = 7): 23 ± 1.1 g
Weight of Animal, Before Treatment ([2]; baseline, n = 7): 27 ± 2 g
Mice died ([2]; during treatment, n = 7): 2
Animal Survival ([2]; n = 10): 28 ± 1.1 days
MAD [3]: 10 µg/mL
